Structures are written as SMILES. Some results are limits rather than exact numbers.

Turning to `COc1cc(-c2csc3c2OCCO3)c(OC)c2c(OC)cc(-c3csc4c3OCCO4)c(OC)c12`, the melting point is 300 to 303 °C.

In turn, `CCOC(=O)C(Cc1c([N+](=O)[O-])ccc(C)c1C)(NC(C)=O)C(=O)OCC` yielded a melting point of 112 to 113 °C.

`O=C(Oc1ccc(Cl)cn1)c1cc2ccccc2sc1=O`: the melting point was 174 to 176 °C.

`CN(CCO)c1ccnc(CO)c1Cl` returned a melting point of 49 to 53 °C.

In turn, `CCCc1nnc2n1-c1ccc(Br)cc1C(c1ccccn1)=NC2` registered a melting point of 184 to 186 °C.

`CC(C)N1CC2(COc3ccc(N(C)C)cc3OC2)OC1=O` (centres undefined) had a melting point of 135 to 138 °C.

With `Cn1c2ccccc2c2c(=O)n([C@@H]3CN4CCC3CC4)ccc21`, the melting point was in the range of 251 to 252 °C.

`CC(C)n1nc(-c2nc(C#Cc3cncn3C)c(N)nc2-c2ccccc2)ccc1=O` returned a melting point greater than 250 °C.

`CSc1ccc(-c2cnn(CC(F)(F)F)c(=O)c2Cl)cc1` gave a melting point of 130 to 139 °C.

On to `Cc1ccc(NN2C=c3cc(-c4c(Cl)cccc4Cl)c(=O)n(C)c3=NC2)cc1`, for which the melting point was in the range of 243 to 245 °C.

Consider `COc1ccc(S(=O)(=O)Nc2ccccc2/C=C/c2ccccn2)cc1`, for which the melting point lay in the range of 137 to 142 °C.

In turn, `CCS(=O)(=O)CCC(=O)NNC(=O)N1Cc2cc(OC)ccc2Oc2ccc(Cl)cc21` showed a melting point of 173 to 175 °C.

Take `OCCN1CCN(Cc2ccc(O)c3ncccc23)CC1`: the melting point was 123 to 124 °C.

Regarding `Clc1ccc2[nH]c3c(c2c1)CN(CCCCc1ccncc1)CC3`, the melting point was in the range of 227 to 228 °C.

For `Cn1cncc1C(c1ccc(Cl)cc1)c1ccc2c(c1)C(c1cccc(Cl)c1)SCC(=O)N2` (centres undefined), the melting point stood at 187 °C.

As to `N#CSc1nc(Cl)ncc1F`, the melting point was 103 to 104 °C.

`CN1C(=O)C(c2ccc(OC(F)F)cc2)(c2cccc(C3CC(=O)C3(C)C)c2)N=C1N` (centres undefined) came in with a melting point of 172 to 174 °C.

`CC(C)OC(=O)Nc1ccc(NC=O)c([N+](=O)[O-])c1`: the melting point was 168 to 170 °C.

Take `CN(C)C(=N)c1nn(-c2c(Cl)cc(C(F)(F)F)cc2Cl)c(N)c1S(=O)C(F)(F)F` (centres undefined): the melting point was 123 to 126 °C.

`O=C(CC1CC1)N[C@H]1CC[C@H](CCN2CCC(c3cccc4c3CCO4)CC2)CC1`: the melting point amounted to 189 °C.

The compound `OC(c1ccc(F)cc1)C1CC2CCN1CC2` (centres undefined) registered a melting point of 69 to 70 °C.

Turning to `C=CCCOc1ccc(C(=O)Oc2ccc3ccc(=O)oc3c2)cc1`, the melting point is 108 to 109 °C.

As for `Cc1cc(C)cc(-c2cnn3c(-c4cccc(-c5nnn(Cc6ccccn6)n5)c4)ccnc23)c1`, the melting point was 77 °C.

In the case of `O=C(NCCN1CCOCC1)N1c2ccccc2-c2noc3c2C1CCC3` (centres undefined), the melting point lay in the range of 176 to 178 °C.

The compound `Cc1nc(-c2ccc(C(F)(F)F)cc2)sc1CN(C)c1ccc(OCC(=O)O)c(F)c1` displayed a melting point of 113 to 114 °C.

`CCCCc1nc(Cl)c(CC(=O)O)c(Cc2ccc(C(=O)O)cc2)n1` yielded a melting point of 205 °C.

In the case of `CC(C)(C)OC(=O)Cn1c(=O)n(Cc2ccccc2)c2ccccc21`, the melting point lay within 99 to 100 °C.

`CN1C(=O)CON(C(=O)OCc2ccccc2)C1c1ccccc1` (centres undefined) showed a melting point of 82 to 83 °C.

Turning to `NCCc1c[nH]c2cc(Cl)c(NC(N)=O)cc12`, the melting point is 212 to 213 °C.

In the case of `CCOP(=O)(OCC)c1cc2nc(OCc3ccccc3)c(OCc3ccccc3)nc2c2c1CN(C)CC2`, the melting point stood at 104 °C.

Regarding `CN1C(=O)C2(COc3cc4c(cc32)OCCO4)c2c(-c3cc[nH]n3)cccc21` (centres undefined), the melting point was 201 to 202 °C.

With `COc1ccc(NC(=O)c2coc(-c3ccncc3)c2)cc1N1CCN(C)CC1`, the melting point lay within 103 to 105 °C.

In the case of `N#Cc1cc(I)c(I)[nH]1`, the melting point lay within 211 to 213 °C.

For the compound `Cc1cc(C#N)c(N)cc1Cl`, the melting point came to 180 °C.

Regarding `CSc1nc2ccnn2c(O)c1C#N`, the melting point was greater than 250 °C.

Consider `O=C1CC2CCc3ccncc3C2=NN1c1ccc(C(F)(F)F)cc1` (centres undefined), for which the melting point fell in the range of 141 to 142 °C.

`Cn1cc(-c2nc(C(F)(F)F)c[nH]2)cn1` had a melting point of 206 to 207 °C.

Compound `CC(C)(C)Nc1c(Nc2ccc3ncccc3c2)c(=O)c1=O` had a melting point of 234 to 236 °C.

As for `COC(=O)c1ccc(Cn2c(=O)c3cc(C(=O)NCc4ccc(OC)cc4)ccc3n(C)c2=O)cc1`, the melting point was 189 °C.

`NS(=O)(=O)c1ccc(-c2cnn(CC(F)(F)F)c(=O)c2-c2ccc(F)cc2)cc1`: the melting point was in the range of 193 to 195 °C.

As for `Oc1cccnc1C=NNc1ccc(F)cc1`, the melting point was 223 to 225 °C.

As to `CCOC(=O)c1cncn1-c1ccc(F)cc1`, the melting point lay within 114 to 115 °C.

`COc1cc(C)nc(NC(=O)NS(=O)(=O)c2ccccc2C2=CCCC2)n1` registered a melting point of 235 to 236 °C.

Turning to `CCC1CC2C3CCc4cc(OC)ccc4C3CCC2(C)C1=O` (centres undefined), the melting point was in the range of 93 to 94 °C.

Consider `O=C(O)c1cccc(Cl)c1C[PH](=O)CO` (centres undefined), for which the melting point is 219 to 220 °C.

The compound `Fc1ccc2c(c1)Oc1ccccc1-c1nc(SC(F)(F)C(F)F)[nH]c1-2` had a melting point of 172 to 175 °C.

Regarding `C(=NC1CN2CCC1CC2)c1ccc(-c2ccccc2)cc1` (centres undefined), the melting point lay in the range of 82 to 84 °C.

Compound `NC(=O)CCNc1cc(Oc2ccc(C(F)(F)F)cc2Cl)ccc1[N+](=O)[O-]` returned a melting point of 137 to 138 °C.

In the case of `CCOC(=O)c1cc([N+](=O)[O-])cc(Br)c1O`, the melting point was found to be 108 °C.

For `CC1=C(C(=O)OCC(Cl)(Cl)Cl)N2C(=O)C(NC(=O)Cc3ccccc3)C2SC1` (centres undefined), the melting point came to 162 °C.

In the case of `CCOC(=O)NC1(c2ccccc2Cl)CCCCC1=O` (centres undefined), the melting point fell in the range of 112 to 114 °C.

Consider `CC1(C)Oc2ccc(C#N)cc2[C@@H](NC(=O)Nc2ccc(-c3ncno3)cc2)[C@@H]1O`, for which the melting point lay within 162 to 167 °C.

In turn, `CC(C)(C)[Si](C)(C)OC[C@H]1OC[C@@H](n2cnc3cc(Cl)c(Cl)cc32)C[C@@H]1O` gave a melting point of 143 to 155 °C.

Regarding `FC(F)(F)COc1nc(-c2ccccc2)c2cc(Cl)ccc2n1`, the melting point lay within 185 to 186 °C.

With `CCCCCCCCCCCCCCC[C@@H](O)C(Cl)C(=O)OC` (some centres undefined), the melting point was 39 to 40 °C.

In turn, `OCCC1CCc2cc(OCc3ccc4ccccc4c3)ccc2C1` (centres undefined) gave a melting point of 90 to 91 °C.

Turning to `CC(C)(O)CCCCc1ccc(CCc2ccc(O)c(O)c2)cc1`, the melting point lay in the range of 124 to 126 °C.

The compound `COc1c([N+](=O)[O-])ccc(N)c1Cl` yielded a melting point of 118 to 123 °C.

Consider `Cc1ncn(-c2cc(C(Cl)(Cl)Cl)c3cc(C(Cl)(Cl)Cl)ccc3n2)n1`, for which the melting point is 169 to 170 °C.

In turn, `COc1nc(N)c2c(OC)c(OC)cc(Cl)c2n1` displayed a melting point of 203 to 204 °C.

The compound `COc1ccc(Cc2c(NC(C)C(C)(C)C)c(=O)c2=O)cc1` (centres undefined) registered a melting point of 137 to 138 °C.

Consider `CSc1nccc(-c2c(-c3ccc(F)cc3)ncn2C2CCNCC2)n1`, for which the melting point fell in the range of 182 to 183 °C.

`O=C(Nc1cccc2ccnnc12)c1c(Cl)cccc1Cl` registered a melting point of 226 to 228 °C.

The compound `COc1cccc(-c2cc(-c3ccc(-c4c(Cc5ccccc5)sc5ccccc45)cc3)cc(Br)c2OCC(=O)O)c1` showed a melting point of 88 to 90 °C.
